This note sets out measurements from patent US10934297B2, “5-heteroaryl substituted indazole-3-carboxamides and preparation and use thereof” (Samumed, LLC, priority 2018, dated 2021).

Test [1] deals with primary human fibroblasts derived from IPF patients (LL29 cells). The experiment in a line: Inhibition of the fibrotic process: αSMA staining in TGF-β1 treated LL29 fibroblasts. Type of test: cell-based. The conditions noted are these: Homo sapiens, Fibroblast, 96 h; LL29 cells, TGF-β1 20 ng/mL, 4 days, % αSMA positive cells. As for the experimental part: Representative compounds were screened using primary human fibroblasts (derived from IPF patients) treated with TGF-β1 to determine their ability to inhibit the fibrotic process.
LL29 cells were plated at 1,500 cells/well in 70 μL/well F12 medium supplemented with 1% Fetal Bovine Serum. […] Wells treated with TGF-β1 and containing DMSO were used as positive control, and cells with only DMSO were negative control. […] Following incubation for 4 days, SYTOX green nucleic acid stain (Life Technologies [Thermo Fisher Scientific]) was added to the wells at a final concentration of 1 μM and incubated at room temperature for 30 min.

In test [2] the test system is SW480 colon carcinoma cells. The experiment in a line: Cell viability assay (CellTiter-Glo) in SW480 colon carcinoma cells. The format is cell-based, human. The conditions noted are these: Homo sapiens, 96 h, four days. The protocol:
Representative compounds were screened using the assay procedure to assess the effect on cell viability as described below.
SW480 colon carcinoma cells were transduced with a lentiviral vector expressing luciferase with a human Sp5 promoter consisting of a sequence of eight TCF/LEF binding sites. SW480 cells stably expressing the Sp5-Luc reporter gene and a hygromycin resistance gene were selected by treatment with 150 μg/mL of hygromycin for 7 days. These stably transduced SW480 cells were expanded in cell culture and used for all further screening activities.
For the Cell Viability Assays, the cells were plated at 2,000 cells/well in 384-well plates with a DMEM medium containing 1% fetal bovine serum, and 1% Penicillin-Streptomycin and incubated for […] at 37° C. and 5% CO2. Eight replicates of DMSO-treated cells served as controls and cells treated with compound were performed in duplicate.
After incubation, 10 μL of CellTiter-Glo (Promega) was added to each well allowed to incubate for approximately 12 minutes. This reagent “results in cell lysis and generation of a luminescent signal proportional to the amount of ATP present. The amount of ATP is directly proportional to the number of cells present in culture, in agreement with previous reports. The CellTiter-Glo® Assay generates a “glow-type” luminescent signal, produced by the luciferase reaction (Promega.com)”.
(In ATP-based viability assays light output follows the ATP content of the culture.)

Test [3] addresses GSK3β kinase (Homo sapiens (Human), UniProt P49841). The experiment in a line: GSK3β kinase assay (Ser/Thr 09 peptide Z-lyte FRET). Type of test: biochemical. Particulars: read-out: EC50 (method: IC50). As for the experimental part:
Representative compounds were screened using the assay procedure for GSK3β kinase activity as described below.
This is a non-radioactive assay using fluorescence resonance energy transfer (FRET) between coumarin and fluorescein to detect kinase activity which is represented as ratio of coumarin emission/fluorescein emission.
The mixture is allowed to incubate with the representative compounds for one hour at room temperature. All reactions were performed in duplicate. Unphosphorylated (“0% Control”) and phosphorylated (“100% control”) forms of Ser/Thr 18 serve as control reactions.
After incubation, diluted Development Buffer is added to the reaction and allowed to further incubate for one hour at room temperature.
Dose-response curves are generated and inhibitory concentration (IC50) values are calculated using non-linear regression curve fit in the Dotmatics' Studies Software (Bishops Stortford, UK).

Test [4] has as its system IL-6. The experiment in a line: IL-6 inhibition in LPS-stimulated human peripheral blood mononuclear cells (HTRF). The format is cell-based. The conditions noted are these: Homo sapiens, PBMC; for EC50: huPBMCs, LPS 50 ng/mL, 22 hours, IL-6 HTRF; for inhibition at 10 µM: read-out: percent inhibition at 10 μM. The protocol:
Fresh Normal PB MNC (Catalog #PB001, AllCells, Alameda, Calif.) were shipped overnight at 4° C. and resuspended in Roswell Park Memorial Institute (RPMI) 1640 Medium, with GlutaMAX Supplement (Catalog #61870127, ThermoFisher Scientific, Waltham, Mass.) supplemented with 1% Penicillin-Streptomycin (Catalog #15140163. ThermoFisher Scientific, Waltham, Mass.) and 1% fetal bovine serum (FBS) (Catalog #16140089, ThermoFisher Scientific, Waltham, Mass.) assay media. Fresh normal human peripheral blood mononuclear cells (huPBMCs) were resuspended in 1% FBS-RPMI assay media with 1% Penicillin-Streptomycin 1% to a cell concentration of 1×10e6 cells/mL. […] 50 ng/mL of Lipopolysaccharides from Escherichia coli 0111:B4 (Catalog #L5293-2ML, Sigma-Aldrich, St. Louis, Mo.) was added after 2 hours and cells were incubated for another 22 hours at 37° C.-5% CO2. After 22 hour incubation, a mixture of anti-IL6 XL665 and anti-IL-6 Cryptate diluted in reconstitution buffer (Catalog #62IL6PEC, Cisbio Inc., Bedford, Mass.) was added to each well. Following incubation for 3 hours at room temperature, Homogeneous Time-Resolved Fluorescence (HTRF) was measured using the Envision (Perkin Elmer, Shelton, Conn.) at 665 nm and […]. The ratio of fluorescence at 665 nm to 620 nm was used as a readout for IL-6 quantification. All samples were processed in duplicate. Readings were normalized to DMSO treated cells and normalized activities were utilized for EC50 calculations.
(In TR-FRET formats the signal depends on donor and acceptor labels being close together.)

Test [5] deals with DYRK1A kinase (Homo sapiens (Human), UniProt Q13627). The experiment in a line: DYRK1A kinase assay (Ser/Thr 18 peptide Z-lyte FRET). The format is biochemical. The conditions noted are these: read-out: EC50 (method: IC50). The protocol: Representative compounds were screened using the assay procedure for DYRK1A kinase activity as described below.
This is a non-radioactive assay using fluorescence resonance energy transfer (FRET) between coumarin and fluorescein to detect kinase activity which is represented as a ratio of coumarin emission/fluorescein emission.
The mixture was allowed to incubate with the representative compounds for one hour at room temperature. All reactions were performed in duplicate. Unphosphorylated (“0% Control”) and phosphorylated (“100% control”) forms of Ser/Thr 18 served as control reactions. Additionally, an 11-point dose-response curve of Staurosporine (1 uM top) was run to serve as a positive compound control.
After incubation, Development Reagent A was diluted in Development Buffer then added to the reaction and allowed to further incubate for one hour at room temperature.

The test system of test [6] is Wnt activity (Sp5-Luc reporter in SW480 cells). The experiment in a line: Screening assay for Wnt activity: Sp5-Luc reporter gene assay in SW480 colon carcinoma cells. The format is cell-based, human. Particulars: Homo sapiens, 36 to 48 hours. The text has this: The screening assay for Wnt activity is described as follows. Reporter cell lines can be generated by stably transducing cancer cell lines (e.g., colon cancer) or primary cells (e.g., IEC-6 intestinal cells) with a lentiviral construct that includes a Wnt-responsive promoter driving expression of the firefly luciferase gene.
SW480 colon carcinoma cells were transduced with a lentiviral vector expressing luciferase with a human Sp5 promoter consisting of a sequence of eight TCF/LEF binding sites. SW480 cells stably expressing the Sp5-Luc reporter gene and a hygromycin resistance gene were selected by treatment with 150 μg/mL of hygromycin for 7 days. These stably transduced SW480 cells were expanded in cell culture and used for all further screening activities. […] For Sp5-Luc reporter gene assays, the cells were plated at 4,000 cells/well in 384-well plates with a DMEM medium containing 1% fetal bovine serum, and 1% Penicillin-Streptomycin and incubated for 36 to 48 hours at 37° C. and 5% CO2. Following incubation, 15 μl of BriteLite Plus luminescence reagent (Perkin Elmer) was added to each well of the 384-well assay plates. The plates were placed on an orbital shaker for 2 min and then luminescence was quantified using the Envision (Perkin Elmer) plate reader. Readings were normalized to DMSO only treated cells, and normalized activities were utilized for EC50 calculations using the dose-response log (inhibitor) vs. response-variable slope (four parameters) nonlinear regression feature available in GraphPad Prism 5.0 (or Dotmatics).
Background: A reporter such as luciferase makes a cellular process visible.

Chain of GSK3β kinase (P49841 whole entry): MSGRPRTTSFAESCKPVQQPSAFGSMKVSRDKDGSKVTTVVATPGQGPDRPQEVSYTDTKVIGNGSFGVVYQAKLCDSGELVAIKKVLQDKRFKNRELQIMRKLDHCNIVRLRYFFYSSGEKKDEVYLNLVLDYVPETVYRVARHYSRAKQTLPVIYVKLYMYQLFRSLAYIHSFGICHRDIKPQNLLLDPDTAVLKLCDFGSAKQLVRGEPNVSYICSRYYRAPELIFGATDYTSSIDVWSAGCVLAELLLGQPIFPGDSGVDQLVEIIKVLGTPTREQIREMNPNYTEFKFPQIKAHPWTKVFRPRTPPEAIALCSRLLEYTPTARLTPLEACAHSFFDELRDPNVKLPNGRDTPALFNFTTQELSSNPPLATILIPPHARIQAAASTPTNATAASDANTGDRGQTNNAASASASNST

As usually defined, the EC50 is the concentration at which the effect is half-maximal. Read a high EC50 as a less potent agent. For orientation: IC50 means the concentration at which inhibition is half-maximal. With `O=C(N[C@@H]1CCCC[C@H]1F)c1n[nH]c2ccc(-c3cnn(C4CC4)c3)cc12` [Compound 12, 5-(1-Cyclopropyl-1H-pyrazol-4-yl)-N-((1R,2R)-2-fluorocyclohexyl)-1H-indazole-3-carboxamide], the EC50 in test [1] came to 621 nM; in test [2], 2260 nM; in test [4], 1160 nM; in test [6] it was 5470 nM. In addition, the IC50 is 38 nM in test [3] and 171 nM in test [5].
With `Cc1ncc(-c2ccc3[nH]nc(C(=O)N[C@@H]4CCCC[C@H]4F)c3c2)n1C` [Compound 13, 5-(1,2-Dimethyl-1H-imidazol-5-yl)-N-((1R,2R)-2-fluorocyclohexyl)-1H-indazole-3-carboxamide], the EC50 was 1390 nM in test [1], greater than 10000 nM in test [2], greater than 10000 nM in test [4] and greater than 10000 nM in test [6]. Further, the half-inhibitory concentration (IC50) in test [3] came out at 24 nM; in test [5], 46 nM.
Regarding `Cn1cc(-c2ccc3[nH]nc(C(=O)NC4CCC(F)(F)CC4)c3c2)cn1` [Compound 14, N-(4,4-Difluorocyclohexyl)-5-(1-methyl-1H-pyrazol-4-yl)-1H-indazole-3-carboxamide], the EC50 was 114 nM in test [1], greater than 10000 nM in test [2], 3540 nM in test [4] and 903 nM in test [6]. In addition, the IC50 in test [3] is 23 nM; in test [5], 18 nM.
`Cn1cc(-c2cc3c(C(=O)NC4CCC(F)(F)CC4)n[nH]c3cc2F)cn1` [Compound 15, N-(4,4-Difluorocyclohexyl)-6-fluoro-5-(1-methyl-1H-pyrazol-4-yl)-1H-indazole-3-carboxamide]: the EC50 was 3320 nM in test [1], 2600 nM in test [2], 3550 nM in test [4] and greater than 10000 nM in test [6]. Also, the IC50 in test [3] turned out to be 58 nM; in test [5], 36 nM.
`CCn1cc(-c2ccc3[nH]nc(C(=O)NC4CCC(F)(F)CC4)c3c2)cn1` [Compound 18, N-(4,4-Difluorocyclohexyl)-5-(1-ethyl-1H-pyrazol-4-yl)-1H-indazole-3-carboxamide]: the EC50 is 950 nM in test [1], 7460 nM in test [2], 3820 nM in test [4] and 801 nM in test [6]. Besides, the IC50 in test [3] is 60 nM; in test [5], 121 nM.
In the case of `O=C(NC1CCC(F)(F)CC1)c1n[nH]c2ccc(-c3cnn(C4CC4)c3)cc12` [Compound 19, 5-(1-Cyclopropyl-1H-pyrazol-4-yl)-N-(4,4-difluorocyclohexyl)-1H-indazole-3-carboxamide], the EC50 is 1180 nM in test [1], 3070 nM in test [2], 3680 nM in test [4] and 1050 nM in test [6]. The IC50 in test [3] turned out to be 64 nM; in test [5], 117 nM.
By inhibition is commonly meant the relative decrease from the control value, in per cent. With `Cc1c(-c2ccc3[nH]nc(C(=O)NC4CCC(F)(F)CC4)c3c2)cnn1C` [Compound 20, N-(4,4-Difluorocyclohexyl)-5-(1,5-dimethyl-1H-pyrazol-4-yl)-1H-indazole-3-carboxamide], the EC50 is 3410 nM in test [1], greater than 10000 nM in test [2], greater than 10000 nM in test [4] and greater than 10000 nM in test [6]. Further, the results for the IC50 in test [3] and in test [5] were 21 nM and 13 nM, respectively. Further, in test [4], the inhibition at 10 µM stood at 36.4%.
Regarding `Cc1nn(C)cc1-c1ccc2[nH]nc(C(=O)NC3CCC(F)(F)CC3)c2c1` [Compound 21, N-(4,4-Difluorocyclohexyl)-5-(1,3-dimethyl-1H-pyrazol-4-yl)-1H-indazole-3-carboxamide], the EC50 in test [1] was 294 nM; in test [2], greater than 10000 nM; in test [4], greater than 10000 nM; in test [6] it was greater than 10000 nM. Further, the IC50 was 903 nM in test [3] and 1820 nM in test [5]. In addition, the inhibition at 10 µM in test [4] is 15.5%.
In the case of `Cc1ncc(-c2ccc3[nH]nc(C(=O)NC4CCC(F)(F)CC4)c3c2)n1C` [Compound 22, N-(4,4-Difluorocyclohexyl)-5-(1,2-dimethyl-1H-imidazol-5-yl)-1H-indazole-3-carboxamide], the EC50 in test [1] was 2200 nM; in test [2] it was greater than 10000 nM; in test [4], greater than 10000 nM; in test [6] it was 2010 nM. The half-maximal inhibitory concentration (IC50) was found to be 61 nM in test [3] and 25 nM in test [5]. Moreover, in test [4], the inhibition at 10 µM came out at 10.2%.
For the compound `Cn1cc(-c2ccc3[nH]nc(C(=O)N[C@H]4CC[C@H](CN5CC(F)C5)CC4)c3c2)cn1` [Compound 23, N-((1R,4R)-4-((3-Fluoroazetidin-1-yl)methyl)cyclohexyl)-5-(1-methyl-1H-pyrazol-4-yl)-1H-indazole-3-carboxamide], the half-maximal effective concentration (EC50) in test [1] is 149 nM; in test [2] it was 409 nM; in test [4], 345 nM; in test [6], 768 nM. In addition, the IC50 in test [3] turned out to be 5 nM; in test [5], 1 nM.
Consider `Cn1cc(-c2cc3c(C(=O)N[C@H]4CC[C@H](CN5CC(F)C5)CC4)n[nH]c3cc2F)cn1` [Compound 24, 6-fluoro-N-((1R,4R)-4-((3-fluoroazetidin-1-yl)methyl)cyclohexyl)-5-(1-methyl-1H-pyrazol-4-yl)-1H-indazole-3-carboxamide], for which the EC50 in test [1] was found to be 125 nM; in test [2], 829 nM; in test [4], 419 nM; in test [6] it was 1340 nM. Moreover, the values for the IC50 in test [3] and in test [5] were 22 nM and 2 nM, respectively.
